Laboratory results taken from patent US11008619B2, “Diagnostic markers for platelet function and methods of use” (Duke University, priority 2012, dated 2021).

Assays:
[1] = tested on: human promyelocytic cell line (HL60); settings: HL60, in vitro aspirin vs vehicle-only control; cited from earlier work
[2] = tested on: COX-1 dependent platelet function; assay: Arachidonic acid-induced platelet aggregation (light transmittance aggregometry), with and without in vitro aspirin; type: in vivo, human
Procedure: (§1) Platelet function studies. Before each visit, subjects were asked to fast and to refrain from tobacco (during the preceding 24 hrs) and alcohol or intensive exercise on the day of testing. Phlebotomy was performed after 10 minutes of resting supine with minimal trauma or stasis at the venipuncture site using a 21-gauge needle into 3.2% sodium citrate tubes. The focus of these studies was around NCDPF and thus, the NCDPF assays were defined as the following: PFA100, and epinephrine, ADP, and collagen induced LTA. […] Serum thromboxane B2 and AA induced aggregation were chosen as measures of COX-1 activity and also added in vitro aspirin to the AA aggregation assay to further assess for any evidence of unsuppressed COX-1 activity.
(§2) Light transmittance aggregometry. Light transmittance aggregometry (LTA) was performed as previously described (Born (1964) Nature 202:95-96) using the following agonists: arachidonic acid (AA, Chrono-log, 0.5 mM), epinephrine (Chrono-Log, 10, 1, and 0.5 μM), ADP (Chrono-Log, 10, 5, and 1 μM), and collagen (Chrono-Log, 5 and 2 μg/ml). The area under the LTA curve (AUC) was chosen as the primary measure of aggregation because the AUC captures several features of the aggregometry curve that are each sensitive to the effects of aspirin: slope, maximal aggregation, and final aggregation. To standardize AUC measurements across individuals and visits the test duration was fixed at 12 minutes for epinephrine and six minutes for collagen, AA, and ADP.

[3] = tested on: non COX-1 dependent platelet function (NCDPF); assay: In vitro addition of aspirin to PRP, epinephrine/ADP/collagen induced light transmittance aggregometry; type: cell-based, human; settings: n=5 HV2 and n=15 DM on daily aspirin
Procedure: Light transmittance aggregometry. […] The area under the LTA curve (AUC) was chosen as the primary measure of aggregation because the AUC captures several features of the aggregometry curve that are each sensitive to the effects of aspirin: slope, maximal aggregation, and final aggregation. To standardize AUC measurements across individuals and visits the test duration was fixed at 12 minutes for epinephrine and six minutes for collagen, AA, and ADP.
Description of area under the curve (AUC) measurement. Using light transmittance aggregometry the percent aggregation is plotted over time to produce the upper curve similar to FIG. 21. The AUC is measured by the aggregometer over the duration of the test, which is fixed at 6 minutes for collagen and ADP and 12 minutes for epinephrine. Higher AUC values reflect higher maximal and residual aggregation, slope, and velocities.
In vitro aspirin. A stock solution of aspirin was created by dissolving acetylsalicylic acid (Sigma-Aldrich A5376) into DMSO and aliquots stored at −80 degrees Celsius. On the day of use, fresh aliquots were thawed, diluted in PBS, and stored at 4 degrees Celsius. […] The PRP was allowed to incubate with in vitro aspirin for 10 minutes at room temperature prior to the addition of agonist.

[4] = tested on: RUNX1 P1 and total transcripts in purified platelets; assay: Platelet RNA RT-PCR for RUNX1 transcripts before and after aspirin exposure; type: in vivo, human; settings: healthy volunteers, before vs after aspirin exposure
Procedure: Platelet purification and RNA isolation.
RNA was extracted from peripheral blood derived platelets using the miRvana miRNA Isolation Kit (Life Technologies) with acid-phenol chloroform (Life Technologies) separation. Due to the low concentration of available platelet RNA, concentration and integrity were assessed using the Agilent 2100 Bioanalyzer Pico chips (Agilent Technologies; Santa Clara, Calif.). The concentration was too low for accurate determination via standard spectrophotometric methods and for the Agilent Pico RIN algorithm to accurately determine a RIN quality score. As a result, quality was assessed by visualization of the Bioanalyzer lane curve. RNA samples with obvious 18S and 28S peaks, minimal degradation “noise” between peaks, and no large aberrant peaks above or below the 18S and 28S bands were selected for further analysis. […]
Concentration and integrity of available platelet RNA were assessed using Agilent 2100 Bioanalyzer Pico chips (Agilent Technologies; Santa Clara, Calif.). […] As a result, quality was assessed by visualization of the Bioanalyzer trace. […]
A loading test plate was run using 4 samples; 2 from each experimental group. […] Optimal loading would result in expression of our lowest targets of interest resulting in Cq values <35, abundant transcripts >18 and a minimal loss of low quantity samples to high RNA loading requirements. […]

COX-1 activity = assay: Serum thromboxane B2 ELISA; type: in vivo, human; settings: HV2; Final visit after 4 weeks 325 mg/day aspirin; range 0.1-2.0
Procedure: as §1

[5] = tested on: non COX-1 dependent platelet function (NCDPF); assay: Platelet function score (PFS) in aspirin challenge study; type: in vivo, human; settings: for mean difference in Pre vs. Post PFS: before vs 3 hrs after single 325 mg aspirin, p<0.0001; for Post PFS: after first 325 mg dose
Procedure: A group of healthy adult volunteers (HV1) were recruited and a defined set of platelet function measurements, as described below, were made before aspirin (“Pre”) and 3-hrs after (“Post”) a single 325 mg tablet of aspirin. Subsequently, subjects were returned for a final assessment (“Final”) 2 weeks after 325 mg/day aspirin. This dose of aspirin was chosen to ensure complete suppression of platelet COX-1 activity in each participant. The 3-hour timepoint was chosen to measure the maximal inhibitory effect of aspirin.
as §1, §2
Platelet Function Analyzer. PFA100 closure time with the use of the collagen/epinephrine cartridge was performed. […] Briefly, citrated whole blood was placed in the PFA100 chamber and blood was aspirated through an aperture in a collagen/epinephrine coated membrane. The amount of time (in seconds[s], up to a maximum of 300 s) until blood ceased to flow through the membrane aperture was recorded as the final result.
Platelet Function Score. […] A platelet function score was derived from a principal components analysis (PCA) of all platelet function measurements made in the HV1 cohort. PCA was chosen to quantify this biological factor. PCA is an unbiased, mathematical technique for reducing a collection of measurements down to a single “meta-measurement” that best describes the aggregate behavior of the set. For example, in the biological sciences, PCA can quantify population substructure in genome wide association studies, patterns of gene expression in microarray experiments, and metabolic pathways in metabolomic studies. In the present study, the input into the PCA was the following set of non-imputed measures from the HV1 cohort: the PFA100 closure time and the AUC from each concentration of ADP, epinephrine, and collagen LTA.

## CC(=O)Oc1ccccc1C(=O)O [aspirin, acetylsalicylic acid]
[1]
  expression of a P1-specific RUNX1 probe set: increased
  expression of the remaining RUNX1 probe sets: did not change
  expression of two P2 RUNX1 probe sets: decreased
[2]; HV2 and DM subjects, Final visit on daily 325 mg aspirin, range 0-7%
  AAA median % aggregation: 3.0%
[2]; in vitro aspirin 53 μM added after 325 mg oral dose, HV2 and DM
  effect of in vitro addition of aspirin on AAA: no further effect
[2]; single 325 mg dose, all HV2 and DM subjects, AA 0.5 mM
  COX-1 dependent platelet function, as assessed by AAA: effectively suppressed
[3]; ADP 5 μM, CI −6.9-2.4%, p=0.3
  mean change aggregation with in vitro aspirin: −2.3%
[3]; collagen 2 mg/ml, CI −6.9, 10.0, p=0.71
  mean change aggregation with in vitro aspirin: 1.5%
[3]; epinephrine 0.5, CI −0.8-4.8%, p=0.2
  mean change aggregation with in vitro aspirin: 2.0%
[4]
  change in total RUNX1 gene expression: minimal changes
  up (or down) regulation in P1 RUNX1 expression: ≤ 5 fold
COX-1 activity
  serum thromboxane B2 mean concentration: 0.3 ng/mL
[5]; DM diabetics, 95% CI 3.6-4.8
  mean difference in Pre vs. Post PFS: 4.2
[5]; HV1, after two weeks of 325 mg/day aspirin, shifted higher, CI 0.1-0.8, p=0.01
  mean difference Post and Final PFS: 0.5
[5]; HV1 healthy volunteers, 95% CI 3.0-3.7
  mean difference in Pre vs. Post PFS: 3.4
[5]; HV2, after four weeks of 325 mg/day aspirin, shift to higher PFS, CI 0.2-1.2, p=0.004
  mean difference between Post and Final PFS: 0.7
[5]; HV2 healthy volunteers, 95% CI 4.5-5.2
  mean difference in Pre vs. Post PFS: 4.8
[5]; HV2 subjects that decreased their Final PFS
  Post PFS: 1.68
[5]; HV2 subjects that increased their Final PFS
  Post PFS: −1.0
